“Also recorded” adds a separate entry of the source. Where two headings read alike, the source gives them in different places. Values belong to the compound of their own block, whether it stands above or below them. Where a SMILES comes first, the peptide text is derived from it. Bridges are numbered along the chain shown (N, C = ends).
Key:
[1] = biological target: human GCGR (Homo sapiens, UniProt P47871); test: Peptide-receptor mediated cAMP accumulation (LANCE Ultra cAMP) in CHO-K1 cells transfected with human GCGR; format: cell-based
[2] = biological target: human GLP-1R (Homo sapiens, UniProt P43220); test: Peptide-receptor mediated cAMP accumulation (LANCE Ultra cAMP) in CHO-K1 cells transfected with human GLP-1R; format: cell-based
[3] = Solubility in water or saline at room temperature, visual inspection; format: physicochemical
Text: Samples were visually inspected for clarity of the sample, any appearance of turbidity or haziness.

[4] = Stability in water or saline at 37° C. and room temperature, 30 days, LC/MS and HPLC purity; format: physicochemical
Text: Samples were withdrawn at a regular interval for 30 days and analyzed by LC/MS and HPLC for determination of purity and mass of the degradation product.

[5] = Steady state plasma concentrations of glucagon analogs given subcutaneously by osmotic minipump; format: in vivo, rat
[6] = FIGURE 2B
[7] = Clearance at intravenous infusion rate of 10 mcg/kg/hr
[8] = 3-hour intravenous infusion pharmacokinetics, peptide clearance (CL); conditions: male, rat, in vivo
[9] = Body weight change in DIO Long Evans rats after 13 days continuous dosing by osmotic pump; conditions: for weight loss compared to vehicle control after 13 days: DIO LE rats, single agent; for ED50 of weight loss: DIO rats, 13 days infusion, fits sharing vehicle response and common maximum (FIG. 9); for common maximal weight loss response: over 13 days, fits constrained to share it (FIG. 9)
[10] = rat, in vivo
[11] = in vivo; conditions: rat, iv
[12] = Intravenous bolus injection pharmacokinetics, clearance (CL), cyclic peptide glucagon analogs; conditions: rat, in vivo; male Wistar Han rats, single iv bolus 0.1 mg/kg; read-out: IV Bolus Clearance Kidney (CL)
[13] = rat, in vivo, iv
[14] = hGLP1 pEC50 (cAMP mean (n = 3): 11 point curve starting at 1 nM, Table 3)
[15] = hGLP1 pEC50 (cAMP) mean (n = 9): 11 point curve starting at 500 uM, Table 2A

human GCGR, sequence (P47871 26-477): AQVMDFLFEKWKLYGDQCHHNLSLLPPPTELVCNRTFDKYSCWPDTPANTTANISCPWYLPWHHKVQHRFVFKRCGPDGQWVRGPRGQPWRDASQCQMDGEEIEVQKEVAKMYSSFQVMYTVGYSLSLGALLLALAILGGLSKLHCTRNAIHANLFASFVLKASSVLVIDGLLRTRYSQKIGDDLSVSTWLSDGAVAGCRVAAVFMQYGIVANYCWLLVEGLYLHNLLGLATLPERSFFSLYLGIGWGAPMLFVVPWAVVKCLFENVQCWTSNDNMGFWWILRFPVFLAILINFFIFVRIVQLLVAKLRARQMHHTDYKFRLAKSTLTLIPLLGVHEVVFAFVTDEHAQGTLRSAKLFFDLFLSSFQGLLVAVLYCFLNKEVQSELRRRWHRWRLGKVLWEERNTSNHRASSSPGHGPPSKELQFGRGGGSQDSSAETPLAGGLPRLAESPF
human GLP-1R, sequence (P43220 24-463): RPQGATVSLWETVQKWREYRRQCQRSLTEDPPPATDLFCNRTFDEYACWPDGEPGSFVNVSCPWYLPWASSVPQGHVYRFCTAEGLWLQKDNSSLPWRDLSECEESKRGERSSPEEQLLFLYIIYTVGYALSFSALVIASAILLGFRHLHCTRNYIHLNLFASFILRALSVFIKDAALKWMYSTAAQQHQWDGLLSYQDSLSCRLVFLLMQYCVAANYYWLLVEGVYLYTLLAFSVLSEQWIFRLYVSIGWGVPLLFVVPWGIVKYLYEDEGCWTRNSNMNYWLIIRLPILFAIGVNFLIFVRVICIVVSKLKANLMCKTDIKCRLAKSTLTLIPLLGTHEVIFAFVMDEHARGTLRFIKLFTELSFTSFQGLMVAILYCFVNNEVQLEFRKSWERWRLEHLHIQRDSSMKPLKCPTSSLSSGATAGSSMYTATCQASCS

Compound: CC(C)C[C@H](NC(=O)[C@H](Cc1ccc(O)cc1)NC(=O)[C@H](CCCCN)NC(=O)[C@H](CO)NC(=O)[C@H](Cc1ccc(O)cc1)NC(=O)[C@H](CC(=O)O)NC(=O)[C@H](CO)NC(=O)[C@@H](NC(=O)[C@H](Cc1ccccc1)NC(=O)[C@@H](NC(=O)CNC(=O)[C@H](Cc1c[nH]cn1)NC(=O)[C@H](CO)NC(=O)[C@@H](N)Cc1ccc(O)cc1)[C@@H](C)O)[C@@H](C)O)C(=O)N[C@@H](CC(=O)O)C(=O)NC(C)(C)C(=O)N[C@@H](CCCCN)C(=O)N[C@@H](CO)C(=O)N[C@@H](C)C(=O)N[C@@H](CCC(N)=O)C(=O)N[C@@H](CCC(=O)O)C(=O)N[C@@H](Cc1ccccc1)C(=O)N[C@H](C(=O)NC(C)(C)C(=O)N[C@@H](Cc1c[nH]c2ccccc12)C(=O)N[C@@H](CC(C)C)C(=O)N[C@@H](CCC(=O)O)C(=O)N[C@@H](CC(=O)O)C(=O)N[C@@H](CCC(=O)O)C(=O)N1CCC[C@H]1C(=O)N[C@@H](CO)C(=O)N[C@@H](CO)C(=O)NCC(=O)N[C@@H](C)C(=O)N1CCC[C@H]1C(=O)N1CCC[C@H]1C(=O)N1CCC[C@H]1C(=O)N[C@@H](CO)C(=O)O)C(C)C [Compound A2]
EC50 [1]: 0.002 nM
activation profile at the human glucagon receptor (GCGR) ([1]; FIG. 1A): nearly equipotent on GCGR
hGCGR pEC50 (cAMP mean (n = 3): 11 point curve starting at 1 nM) ([1]; Table 3): 11.7
activation profile at the human GLP-1 receptor (GLP-1R) ([2]; FIG. 1B): inactive on GLP-1R
EC50 [2, 14]: 3980 nM
EC50 [2, 15]: 3980 nM
solubility ([3]; Table 3, room temperature, read-out: Solubility in water): > 200 mg/mL
Stability 1 mg/ml in water at 37 degC ([4]; Table 3, % printed only in cells of A1-A6): >84%
mode of clearance ([5]; FIG. 6, steady state plasma concentration vs inulin/GFR): consistent with being via glomerular filtration; also recorded: cleared mainly by glomerular filtration
subcutaneous bioavailability ([5]; sc osmotic minipump, rat): high
CL [6]: 12.3 ± 0.6 mL/min/kg
clearance compared with exenatide and glucagon ([7]; FIG. 7): less than that of exenatide and glucagon
mode of clearance ([7]; FIG. 7, Table 5 values close to GFR): cleared from plasma via glomerular filtration
CL ([7]; Table 5, intravenous infusion rate 10 mcg/kg/hr, rat): 11.3 mL/min/kg
clearance ([7]; rat, in vivo, iv, 10 mcg/kg/hr, CL mL/min/kg, Table 5, intravenous infusion rate 10 mcg/kg/hr): 10.8 mL/min/kg
clearance [8]: 10.8 mL/min/kg
weight loss compared to vehicle control after 13 days ([9]; 0.01 mg/kg/day): 3.7%
weight loss compared to vehicle control after 13 days ([9]; 0.03 mg/kg/day): 3.9%
weight loss compared to vehicle control after 13 days ([9]; 0.1 mg/kg/day): 8.6%
weight loss compared to vehicle control after 13 days ([9]; 0.3 mg/kg/day): 23.7%
ED50 of weight loss [9]: 271 µg/kg/day
common maximal weight loss response [9]: 27.2%

Compound: CC(C)C[C@H](NC(=O)[C@H](Cc1ccc(O)cc1)NC(=O)[C@H](CCCCN)NC(=O)[C@H](CO)NC(=O)[C@H](Cc1ccc(O)cc1)NC(=O)[C@H](CC(=O)O)NC(=O)[C@H](CO)NC(=O)[C@@H](NC(=O)[C@H](Cc1ccccc1)NC(=O)[C@@H](NC(=O)CNC(=O)[C@H](CCC(N)=O)NC(=O)[C@H](CO)NC(=O)[C@@H](N)Cc1ccc(O)cc1)[C@@H](C)O)[C@@H](C)O)C(=O)N[C@@H](CC(=O)O)C(=O)N[C@@H](C)C(=O)N[C@@H](C)C(=O)N[C@@H](CCCNC(=N)N)C(=O)N[C@@H](C)C(=O)N[C@@H](CCC(N)=O)C(=O)N[C@@H](CCC(=O)O)C(=O)N[C@@H](Cc1ccccc1)C(=O)N[C@H](C(=O)N[C@@H](CCCCN)C(=O)N[C@@H](Cc1c[nH]c2ccccc12)C(=O)N[C@@H](CC(C)C)C(=O)N[C@@H](CCC(=O)O)C(=O)N[C@@H](CC(=O)O)C(=O)N[C@@H](CCC(=O)O)C(=O)N1CCC[C@H]1C(=O)N[C@@H](CCCCN)C(=O)N[C@@H](CO)C(=O)N[C@@H](CCCCN)C(=O)N[C@@H](CO)C(=O)N1CCC[C@H]1C(=O)N1CCC[C@H]1C(=O)N1CCC[C@H]1C(=O)N[C@@H](CO)C(N)=O)C(C)C [Compound A3] (H-YSQGTFTSDYSKYLDAARAQEFVKWLEDEPKSKSPPPS-NH2; N-terminus assumed)
EC50 [2, 14]: 200 nM
EC50 [2, 15]: 200 nM
solubility ([3]; Solubility in water mg/ml): > 200 mg/mL
Stability 1 mg/ml in water at 37 degC [4]: >64%
mode of clearance [10]: cleared from plasma via glomerular filtration
clearance [11]: 10.7 mL/min/kg
CL [6]: 12.5 ± 1.6 mL/min/kg
ED50 of weight loss [9]: 535 µg/kg/day
common maximal weight loss response [9]: 27.2%

clearance [12]: 80.7 ± 15.4 mL/min/kg
Compound: CC(C)C[C@H](NC(=O)[C@H](Cc1ccc(O)cc1)NC(=O)[C@H](CCCCN)NC(=O)[C@H](CO)NC(=O)[C@H](Cc1ccc(O)cc1)NC(=O)[C@H](CC(=O)O)NC(=O)[C@H](CO)NC(=O)[C@@H](NC(=O)[C@H](Cc1ccccc1)NC(=O)[C@@H](NC(=O)CNC(=O)[C@H](CCC(N)=O)NC(=O)[C@H](CO)NC(=O)[C@@H](N)Cc1ccc(O)cc1)[C@@H](C)O)[C@@H](C)O)C(=O)N[C@@H](CC(=O)O)C(=O)N[C@@H](CO)C(=O)N[C@H]1CCCCNC(=O)CC[C@@H](C(=O)N[C@@H](Cc2ccccc2)C(=O)N[C@H](C(=O)N[C@H]2CCCCNC(=O)CC[C@@H](C(=O)N[C@H](C(=O)O)[C@@H](C)O)NC(=O)[C@H](CC(=O)O)NC(=O)[C@H](CC(C)C)NC(=O)[C@H](Cc3c[nH]c4ccccc34)NC2=O)C(C)C)NC(=O)[C@H](CCC(N)=O)NC(=O)[C@H](C)NC(=O)[C@H](CCCNC(=N)N)NC1=O [Compound A104] (H-YSQGTFTSDYSKYLDSKRAQEFVKWLDET-OH; lactam 17-21, 24-28)

clearance [12]: 67 ± 7.3 mL/min/kg
Compound: CC(C)C[C@H](NC(=O)[C@H](Cc1ccc(O)cc1)NC(=O)[C@H](CCCCN)NC(=O)[C@H](CO)NC(=O)[C@H](Cc1ccc(O)cc1)NC(=O)[C@H](CC(=O)O)NC(=O)[C@H](CO)NC(=O)[C@@H](NC(=O)[C@H](Cc1ccccc1)NC(=O)[C@@H](NC(=O)CNC(=O)[C@H](CCC(N)=O)NC(=O)[C@H](CO)NC(=O)[C@@H](N)Cc1ccc(O)cc1)[C@@H](C)O)[C@@H](C)O)C(=O)N[C@@H](CC(=O)O)C(=O)N[C@@H](CO)C(=O)N[C@H]1CCCCNC(=O)CC[C@@H](C(=O)N[C@@H](Cc2ccccc2)C(=O)N[C@H](C(=O)N[C@H]2CCCCNC(=O)CC[C@@H](C(=O)N[C@H](C(=O)O)[C@@H](C)O)NC(=O)[C@H](CCC(N)=O)NC(=O)[C@H](CC(C)C)NC(=O)[C@H](Cc3c[nH]c4ccccc34)NC2=O)C(C)C)NC(=O)[C@H](CCC(N)=O)NC(=O)[C@H](C)NC(=O)[C@H](CCCNC(=N)N)NC1=O [Compound A105] (H-YSQGTFTSDYSKYLDSKRAQEFVKWLQET-OH; lactam 17-21, 24-28)

Compound: GLP-1: glucagon-like peptide-1; infused as GLP-1-(7-36)amide in Example 13
Plasma clearance rates [13]: 34±4 to 38±3

Reference: patent US20240239861A1, “GLUCAGON-RECEPTOR SELECTIVE POLYPEPTIDES AND METHODS OF USE THEREOF” (i2O Therapeutics, Inc., priority 2016, published 2024)
